Common to all, as to experiment: SelectScreen Z'LYTE kinase profiling
Common to all, as to type: biochemical
What all share (settings): ATP at apparent KM

For one assay, the target named is GSK3B (GSK3 beta) (Homo sapiens, UniProt P49841).
The target in another assay is T1, ITK (Homo sapiens, UniProt Q08881).
T1 sequence (Q08881 1-620): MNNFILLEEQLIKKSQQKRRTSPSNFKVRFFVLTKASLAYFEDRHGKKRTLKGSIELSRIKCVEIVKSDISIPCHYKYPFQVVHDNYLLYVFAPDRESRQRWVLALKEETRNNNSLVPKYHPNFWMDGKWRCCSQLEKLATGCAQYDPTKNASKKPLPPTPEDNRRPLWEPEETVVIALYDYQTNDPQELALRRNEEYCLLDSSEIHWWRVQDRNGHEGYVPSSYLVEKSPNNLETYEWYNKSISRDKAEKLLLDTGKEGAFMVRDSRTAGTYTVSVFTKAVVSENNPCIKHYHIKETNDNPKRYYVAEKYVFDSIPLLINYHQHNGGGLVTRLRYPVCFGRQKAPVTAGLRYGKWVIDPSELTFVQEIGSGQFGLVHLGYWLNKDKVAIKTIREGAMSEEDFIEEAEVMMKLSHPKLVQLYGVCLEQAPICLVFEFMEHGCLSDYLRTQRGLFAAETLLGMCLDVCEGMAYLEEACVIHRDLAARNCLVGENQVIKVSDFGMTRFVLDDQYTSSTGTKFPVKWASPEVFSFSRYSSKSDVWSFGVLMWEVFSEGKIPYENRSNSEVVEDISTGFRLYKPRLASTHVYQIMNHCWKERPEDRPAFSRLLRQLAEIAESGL

For a further assay, the target named is ERBB2 (HER2) (Homo sapiens, UniProt P04626).
Sequence of ERBB2 (HER2) (P04626 23-1255): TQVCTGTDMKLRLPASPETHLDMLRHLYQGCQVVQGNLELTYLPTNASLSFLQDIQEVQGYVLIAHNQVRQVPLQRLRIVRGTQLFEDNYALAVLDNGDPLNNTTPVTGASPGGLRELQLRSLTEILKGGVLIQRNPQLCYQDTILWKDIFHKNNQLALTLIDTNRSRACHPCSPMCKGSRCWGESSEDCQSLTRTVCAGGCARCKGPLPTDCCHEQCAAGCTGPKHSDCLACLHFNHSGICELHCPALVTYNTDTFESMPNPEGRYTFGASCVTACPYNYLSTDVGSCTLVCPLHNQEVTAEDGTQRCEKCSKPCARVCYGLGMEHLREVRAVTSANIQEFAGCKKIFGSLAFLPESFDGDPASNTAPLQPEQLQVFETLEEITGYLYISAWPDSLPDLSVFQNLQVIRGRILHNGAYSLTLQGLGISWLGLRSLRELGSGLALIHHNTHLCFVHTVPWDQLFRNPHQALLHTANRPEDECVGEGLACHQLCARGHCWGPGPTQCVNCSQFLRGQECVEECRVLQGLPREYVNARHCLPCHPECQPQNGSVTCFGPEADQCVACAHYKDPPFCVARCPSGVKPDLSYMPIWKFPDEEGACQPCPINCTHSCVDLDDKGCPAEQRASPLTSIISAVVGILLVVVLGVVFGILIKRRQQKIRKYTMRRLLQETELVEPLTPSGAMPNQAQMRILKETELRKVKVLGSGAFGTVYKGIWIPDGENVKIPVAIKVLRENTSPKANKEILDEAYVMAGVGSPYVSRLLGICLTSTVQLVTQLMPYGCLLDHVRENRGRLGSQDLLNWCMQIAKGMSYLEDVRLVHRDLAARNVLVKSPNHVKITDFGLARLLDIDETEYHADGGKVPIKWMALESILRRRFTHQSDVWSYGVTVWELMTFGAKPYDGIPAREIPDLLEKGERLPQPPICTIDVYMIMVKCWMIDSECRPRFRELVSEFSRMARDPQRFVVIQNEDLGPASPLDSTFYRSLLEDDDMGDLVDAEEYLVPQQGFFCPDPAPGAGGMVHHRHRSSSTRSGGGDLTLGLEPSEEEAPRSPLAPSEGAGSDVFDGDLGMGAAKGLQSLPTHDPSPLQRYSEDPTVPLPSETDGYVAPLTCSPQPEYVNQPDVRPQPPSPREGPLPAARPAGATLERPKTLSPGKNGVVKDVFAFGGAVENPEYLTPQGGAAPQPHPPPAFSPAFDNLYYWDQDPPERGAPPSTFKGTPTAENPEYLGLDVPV
Another assay addresses T2, JAK3 (Homo sapiens, UniProt P52333).
T2 sequence (P52333 1-1124): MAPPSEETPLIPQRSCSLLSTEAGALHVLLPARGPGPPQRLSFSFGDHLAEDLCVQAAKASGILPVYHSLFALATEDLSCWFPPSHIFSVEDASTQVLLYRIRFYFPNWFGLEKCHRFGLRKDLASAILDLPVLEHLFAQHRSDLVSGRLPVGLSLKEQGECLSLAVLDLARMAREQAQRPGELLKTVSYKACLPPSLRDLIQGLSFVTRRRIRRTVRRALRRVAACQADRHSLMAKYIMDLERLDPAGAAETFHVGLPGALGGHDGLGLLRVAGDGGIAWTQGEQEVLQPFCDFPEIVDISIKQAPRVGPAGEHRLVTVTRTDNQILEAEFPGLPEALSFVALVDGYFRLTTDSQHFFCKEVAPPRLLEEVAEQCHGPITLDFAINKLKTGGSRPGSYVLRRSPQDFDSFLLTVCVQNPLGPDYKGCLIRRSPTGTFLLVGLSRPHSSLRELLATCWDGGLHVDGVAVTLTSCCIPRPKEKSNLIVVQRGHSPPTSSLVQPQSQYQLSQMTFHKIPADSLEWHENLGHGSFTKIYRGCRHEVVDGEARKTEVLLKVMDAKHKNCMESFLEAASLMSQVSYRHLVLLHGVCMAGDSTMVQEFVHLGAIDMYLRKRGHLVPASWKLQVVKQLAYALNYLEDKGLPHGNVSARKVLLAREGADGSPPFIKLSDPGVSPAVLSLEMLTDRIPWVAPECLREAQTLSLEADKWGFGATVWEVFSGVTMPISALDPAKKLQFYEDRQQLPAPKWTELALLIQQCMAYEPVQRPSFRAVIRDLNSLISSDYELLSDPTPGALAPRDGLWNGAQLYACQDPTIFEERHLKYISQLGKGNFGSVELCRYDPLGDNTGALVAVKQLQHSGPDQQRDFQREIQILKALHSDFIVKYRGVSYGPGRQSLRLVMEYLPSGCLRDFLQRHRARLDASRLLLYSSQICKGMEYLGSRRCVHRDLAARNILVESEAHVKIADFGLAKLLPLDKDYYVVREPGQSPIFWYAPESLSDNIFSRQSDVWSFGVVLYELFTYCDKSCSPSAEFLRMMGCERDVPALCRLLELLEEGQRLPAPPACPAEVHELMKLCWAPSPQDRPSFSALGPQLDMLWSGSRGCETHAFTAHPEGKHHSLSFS

Sequence of GSK3B (GSK3 beta) (P49841 whole entry): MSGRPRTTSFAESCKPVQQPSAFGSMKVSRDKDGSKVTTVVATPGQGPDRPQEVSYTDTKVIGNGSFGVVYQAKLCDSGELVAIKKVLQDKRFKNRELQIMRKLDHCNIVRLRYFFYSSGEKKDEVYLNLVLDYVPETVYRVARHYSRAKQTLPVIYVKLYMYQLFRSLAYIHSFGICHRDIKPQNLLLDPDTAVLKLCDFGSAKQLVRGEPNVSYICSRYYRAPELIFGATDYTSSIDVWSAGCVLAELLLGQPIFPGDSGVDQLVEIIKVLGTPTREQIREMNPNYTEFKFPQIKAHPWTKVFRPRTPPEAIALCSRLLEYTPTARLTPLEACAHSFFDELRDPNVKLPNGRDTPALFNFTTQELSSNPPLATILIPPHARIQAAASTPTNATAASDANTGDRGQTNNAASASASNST
Procedure for ERBB2 (HER2): (§1) protein kinases at a compound concentration of 1 µM. Measurements were performed in duplicates
(§2) and at the particular apparent ATP KM of each individual kinase employing the activity based Z’LYTE®
(§3) kinase assay of the SelectScreen® Kinase Profiling Services (ThermoFisher Scientific).
(§4) kinases at a compound concentration of 1 µM. Measurements were performed in duplicates and at
(§5) the particular apparent ATP KM of each individual kinase employing the activity based Z’LYTE® kinase
(§6) assay of the SelectScreen® Kinase Profiling Services (ThermoFisher Scientific).
Procedure for GSK3B (GSK3 beta): as §1, §2, §3, §4, §5, §6
Procedure for ITK: as §1, §2, §3, §4, §5, §6
Procedure for JAK3: as §1, §2, §3, §4, §5, §6

On to `C=CC(=O)Nc1ccc2c(c1)n(C1CCN(Cc3ccc(-c4nc5cc[nH]c(=O)c5cc4-c4ccccc4)cc3)CC1)c(=O)n2C` [24b], for which the inhibition at 1 µM was 22% on GSK3B (GSK3 beta), -9% on ITK, -1% at ERBB2 (HER2) and 23% on JAK3.

For `C=CC(=O)Nc1cccc(C(=O)NC2CCN(Cc3ccc(-c4nc5cc[nH]c(=O)c5cc4-c4ccccc4)cc3)CC2)c1` [30b], the inhibition at 1 µM on GSK3B (GSK3 beta) was 29%; at ITK it was 1%; at ERBB2 (HER2), -2%; at JAK3, 26%.

For the compound `C=CC(=O)Nc1cc(NC(=O)NC2CCN(Cc3ccc(-c4nc5cc[nH]c(=O)c5cc4-c4ccccc4)cc3)CC2)ccc1Cl` [compound 27], the inhibition at 1 µM on GSK3B (GSK3 beta) came out at 18%; at ITK, 8%; at ERBB2 (HER2) it was 0%; on JAK3, 17%.

The values are drawn from PMC6430017, “Structural and chemical insights into the covalent-allosteric inhibition of the protein kinase Akt” (Chemical Science, 2019).
